Our source for the IC50 values is ChEMBL document CHEMBL3627653, “Synthesis and biological evaluation of spiro[cyclopropane-1,3'-indolin]-2'-ones as potential anticancer agents” (Bioorg Med Chem Lett, 2015).

Bounds are passed on as bounds.

What all share (assay type): functional, cell-based
In one assay the test system is HT-29. The experiment in a line: Anticancer activity against human HT-29 cells assessed as reduction in cell viability incubated for 48 hrs by MTT assay. The settings on record: HT-29, 48 h. (In general: Formazan colour is commonly taken as a measure of viable cells.)
The next assay deals with DU-145. The experiment in a line: Anticancer activity against human DU145 cells assessed as reduction in cell viability incubated for 48 hrs by MTT assay. The settings on record: DU-145, 48 h.
In another assay the test system is HeLa. Briefly: Anticancer activity against human HeLa cells assessed as reduction in cell viability incubated for 48 hrs by MTT assay.
Another assay has as its system A549. The experiment in a line: Anticancer activity against human A549 cells assessed as reduction in cell viability incubated for 48 hrs by MTT assay. The settings on record: A549, 48 h.
The next assay concerns MCF7. The experiment in a line: Anticancer activity against human MCF7 cells assessed as reduction in cell viability incubated for 48 hrs by MTT assay. The settings on record: MCF7, 48 h.

As usually defined, the IC50 is the concentration at which inhibition is half-maximal. As for `CCOC(=O)[C@H]1[C@H](C(O)c2ccc([N+](=O)[O-])cc2)C12C(=O)Nc1ccc(Br)cc12` (stereo partly drawn), the IC50 in the assay with HT-29 is 23.4 µM; with DU-145, 27.8 µM; in the assay with HeLa, 28.8 µM; in the assay on A549, 21.1 µM; in the assay with MCF7, greater than 100 µM.

Turning to `CCOC(=O)[C@@H]1[C@@H](C(=O)c2ccccc2)C12C(=O)Nc1ccccc12` (stereo partly drawn), the IC50 turned out to be 2.75 µM in the assay with HT-29; 1.69 µM in the assay on DU-145; 7.24 µM with HeLa; 4.16 µM with A549; 2.95 µM with MCF7.

As for `CCOC(=O)[C@H]1C(C(=O)c2ccc(OC)cc2)C12C(=O)Nc1ccc(Cl)cc12` (stereo partly drawn), the IC50 in the assay on HT-29 came out at 9.54 µM; in the assay with DU-145 it was 5.01 µM; with HeLa, 9.12 µM; with A549 it was 6.42 µM; in the assay on MCF7, 9.33 µM.

Take `CCOC(=O)[C@H]1[C@H](C(=O)OCC)C12C(=O)Nc1ccc(Cl)cc12` (relative stereo): the IC50 in the assay with HT-29 was 22.9 µM; in the assay with DU-145, 19.9 µM; with HeLa, 25.1 µM; in the assay on A549, 29 µM; in the assay on MCF7, 24 µM.

As for `CCOC(=O)[C@H]1[C@H](C(=O)OCC)C12C(=O)Nc1ccc(Br)cc12` (relative stereo), the IC50 is 30.9 µM with HT-29; 50.7 µM with DU-145; 62.8 µM in the assay on HeLa; greater than 100 µM in the assay with A549; greater than 100 µM with MCF7.

For `CCOC(=O)[C@H]1[C@H](C(=O)OCC)C12C(=O)Nc1ccc(F)cc12` (relative stereo), the IC50 turned out to be 36.6 µM in the assay on HT-29; 24.3 µM with DU-145; 84.2 µM in the assay with HeLa; 78.2 µM in the assay with A549; 36.8 µM in the assay with MCF7.

`CCOC(=O)[C@H]1[C@H](C(=O)OCC)C12C(=O)Nc1ccccc12` (relative stereo): the IC50 is 18.9 µM in the assay with HT-29; 18.6 µM with DU-145; 61.3 µM in the assay with HeLa; greater than 100 µM in the assay on A549; 57.5 µM with MCF7.

Consider `CCOC(=O)[C@H]1[C@H](C(=O)OCC)C12C(=O)Nc1ccc([N+](=O)[O-])cc12` (relative stereo), for which the IC50 in the assay with HT-29 is 50.1 µM; with DU-145, 38 µM; in the assay with HeLa, 32.9 µM; in the assay with A549, greater than 100 µM; with MCF7 it was 71.6 µM.

For the compound `CCOC(=O)[C@H]1[C@H](C(=O)OCC)C12C(=O)N(C)c1ccccc12` (relative stereo), the IC50 in the assay on HT-29 was determined as 26.9 µM; in the assay on DU-145 it was 39.8 µM; with HeLa, 32.2 µM; in the assay with A549, 74.2 µM; in the assay on MCF7 it was 32.1 µM.

As to `CCOC(=O)[C@H]1[C@H](C(=O)c2ccc(Cl)cc2)C12C(=O)Nc1ccccc12` (relative stereo), the IC50 in the assay on HT-29 was 23.7 µM; with DU-145, 15.8 µM; in the assay with HeLa, 19.9 µM; in the assay with A549, 12.9 µM; in the assay with MCF7, 18.6 µM.

`CCOC(=O)[C@H]1[C@H](C(=O)c2ccc(OC)cc2)C12C(=O)Nc1ccccc12` (relative stereo): the IC50 in the assay with HT-29 was found to be 14.7 µM; with DU-145, 17.4 µM; in the assay on HeLa it was 26.3 µM; with A549, 9.77 µM; in the assay on MCF7, 19.1 µM.

As for `CCOC(=O)[C@H]1[C@H](C(=O)c2ccc3ccccc3c2)C12C(=O)Nc1ccccc12` (relative stereo), the IC50 was determined as 18 µM in the assay with HT-29; 17.2 µM with DU-145; 20 µM in the assay with HeLa; 12.6 µM in the assay with A549; 31.1 µM in the assay with MCF7.

As to `CCOC(=O)[C@H]1[C@H](C(=O)c2ccc([N+](=O)[O-])cc2)C12C(=O)Nc1ccccc12` (relative stereo), the IC50 in the assay with HT-29 was found to be 25.1 µM; in the assay on DU-145, 19.8 µM; in the assay with HeLa, 41.3 µM; in the assay on A549, 19.1 µM; with MCF7, 22.1 µM.

In the case of `CCOC(=O)[C@H]1[C@H](C(=O)c2ccc(OC)c([N+](=O)[O-])c2)C12C(=O)Nc1ccccc12` (relative stereo), the IC50 with HT-29 was determined as 7.24 µM; with DU-145 it was 6.36 µM; in the assay on HeLa it was 7.76 µM; in the assay on A549, 4.79 µM; with MCF7, 9.77 µM.

With `CCOC(=O)[C@H]1[C@H](C(=O)c2cc(OC)c(OC)c(OC)c2)C12C(=O)Nc1ccccc12` (relative stereo), the half-inhibitory concentration (IC50) in the assay on HT-29 came out at 8.51 µM; with DU-145 it was 15.8 µM; in the assay on HeLa, 32.8 µM; with A549 it was 17.7 µM; in the assay with MCF7 it was 50.1 µM.

Consider `CCOC(=O)[C@H]1[C@H](C(=O)c2cc(OC)c(OC)c(OC)c2)C12C(=O)Nc1ccc(Cl)cc12` (relative stereo), for which the IC50 with HT-29 is 25.1 µM; in the assay on DU-145, 21.9 µM; with HeLa it was 39.8 µM; in the assay on A549, 24.1 µM; in the assay with MCF7, 37.5 µM.

Take `CCOC(=O)[C@H]1[C@H](C(=O)c2ccc(Cl)cc2)C12C(=O)Nc1ccc(Cl)cc12` (relative stereo): the IC50 with HT-29 was 79.4 µM; with DU-145, greater than 100 µM; in the assay on HeLa it was greater than 100 µM; with A549, 32.4 µM; in the assay on MCF7 it was 30.8 µM.

Consider `CCOC(=O)[C@H]1[C@H](C(=O)c2ccc(C)cc2)C12C(=O)Nc1ccc(Cl)cc12` (relative stereo), for which the IC50 is greater than 100 µM with HT-29; greater than 100 µM with DU-145; greater than 100 µM in the assay with HeLa; greater than 100 µM with A549; 90.2 µM in the assay with MCF7.

Take `CCOC(=O)[C@H]1[C@H](C(=O)c2ccc(OC)c(OC)c2)C12C(=O)Nc1ccc(Cl)cc12` (relative stereo): the IC50 in the assay with HT-29 worked out at 9.92 µM; in the assay on DU-145 it was 8.31 µM; in the assay with HeLa, 13 µM; in the assay with A549, 7.07 µM; with MCF7 it was 20.3 µM.

Turning to `CCOC(=O)[C@H]1[C@H](C(=O)c2ccc3ccccc3c2)C12C(=O)Nc1ccc(Cl)cc12` (relative stereo), the IC50 is 5.01 µM in the assay with HT-29; 5.24 µM in the assay on DU-145; 7.76 µM in the assay on HeLa; 6.16 µM with A549; 4.89 µM in the assay with MCF7.

As to `CCOC(=O)[C@H]1[C@H](C(=O)c2ccc([N+](=O)[O-])cc2)C12C(=O)Nc1ccc(Cl)cc12` (relative stereo), the IC50 stood at 2.95 µM in the assay on HT-29; 2.88 µM in the assay with DU-145; 10.7 µM with HeLa; 3.59 µM in the assay on A549; 4.26 µM with MCF7.

As to `CCOC(=O)[C@H]1[C@H](C(=O)c2ccccc2)C12C(=O)N(C)c1ccccc12` (relative stereo), the IC50 with HT-29 amounted to 16.1 µM; in the assay with DU-145, 7.94 µM; in the assay with HeLa it was 19.5 µM; in the assay on A549 it was 7.24 µM; in the assay on MCF7 it was 13.2 µM.

With `CCOC(=O)[C@H]1[C@H](C(=O)c2ccc3ccccc3c2)C12C(=O)N(C)c1ccccc12` (relative stereo), the IC50 was greater than 100 µM in the assay with HT-29; greater than 100 µM with DU-145; greater than 100 µM with HeLa; 98.5 µM in the assay on A549; 75.9 µM with MCF7.

With `CCOC(=O)[C@H]1[C@H](C(=O)c2ccc(C)cc2)C12C(=O)N(C)c1ccccc12` (relative stereo), the IC50 turned out to be 23.9 µM with HT-29; 7.24 µM with DU-145; 33.5 µM in the assay with HeLa; 5.49 µM in the assay with A549; 24.7 µM with MCF7.

For `CCOC(=O)[C@H]1[C@H](C(=O)c2ccc([N+](=O)[O-])cc2)C12C(=O)N(C)c1ccccc12` (relative stereo), the IC50 stood at 19.7 µM in the assay on HT-29; 18.9 µM with DU-145; 51.2 µM with HeLa; 26.1 µM in the assay with A549; 37.1 µM in the assay on MCF7.

Consider `CCOC(=O)[C@H]1[C@H](C(=O)c2ccc(Cl)cc2)C12C(=O)N(C)c1ccccc12` (relative stereo), for which the IC50 in the assay on HT-29 amounted to 8.51 µM; with DU-145, 6.3 µM; in the assay on HeLa, 12.6 µM; in the assay on A549 it was 6.56 µM; in the assay with MCF7 it was 12.6 µM.

As to `CCOC(=O)[C@H]1[C@H](C(=O)c2ccc(OC)cc2)C12C(=O)N(C)c1ccccc12` (relative stereo), the IC50 in the assay on HT-29 was found to be 13.2 µM; with DU-145, 15 µM; in the assay on HeLa, 15.4 µM; in the assay on A549 it was 5.88 µM; in the assay with MCF7, 18.2 µM.

With `CCOC(=O)[C@H]1[C@H](C(=O)c2ccc(OC)cc2)C12C(=O)Nc1ccc(Br)cc12` (relative stereo), the IC50 with HT-29 worked out at 33.7 µM; in the assay on DU-145, 31.7 µM; with HeLa, 45.1 µM; in the assay on A549, 79.4 µM; with MCF7, 41.6 µM.

For `CCOC(=O)[C@H]1[C@H](C(=O)c2ccc3ccccc3c2)C12C(=O)Nc1ccc(Br)cc12` (relative stereo), the IC50 in the assay with HT-29 was 79.4 µM; in the assay on DU-145, 36.9 µM; in the assay with HeLa, greater than 100 µM; in the assay on A549 it was 25 µM; with MCF7 it was 29.3 µM.

With `CCOC(=O)[C@H]1[C@H](C(=O)c2ccc(Cl)cc2)C12C(=O)Nc1ccc(Br)cc12` (relative stereo), the IC50 came out at 8.47 µM in the assay on HT-29; 8.12 µM in the assay with DU-145; 62.1 µM in the assay on HeLa; 15.8 µM with A549; 12.2 µM with MCF7.

Regarding `CCOC(=O)[C@H]1[C@H](C(=O)c2ccc([N+](=O)[O-])cc2)C12C(=O)Nc1ccc(Br)cc12` (relative stereo), the IC50 was 42.6 µM in the assay with HT-29; 31.6 µM with DU-145; 68.9 µM in the assay on HeLa; 30.5 µM in the assay on A549; greater than 100 µM in the assay on MCF7.

`COc1cccc2c1C(=O)c1c(O)c3c(c(O)c1C2=O)C[C@@](O)(C(=O)CO)C[C@@H]3O[C@H]1C[C@H](N)[C@H](O)[C@H](C)O1` [DOXORUBICIN]: the IC50 in the assay with HT-29 worked out at 0.93 µM; with DU-145, 1.94 µM; in the assay with HeLa it was 1.51 µM.
